In ChEMBL document CHEMBL5365551, “Fragment-Based NMR Screening of the BPTF PHD Finger Methyl Lysine Reader Leads to the First Small-Molecule Inhibitors” (ACS Med Chem Lett, 2023):
The source made the active and inactive calls. No cut-off for these calls is given here.

Tests used:
[1] = target: T1, Nucleosome-remodeling factor subunit BPTF (Homo sapiens, UniProt Q12830); test: Inhibition of biotinylated-H3K4me2 binding to N-terminal His9 tagged human BPTF isoform 2 PHD (2722 to 2781 residues) expressed in Escherichia coli BL21 Star (DE3) at 2 mM measured after 1 hr by Alphascreen assay relative to control
[2] = target: T1, Nucleosome-remodeling factor subunit BPTF; test: Inhibition of biotinylated-H3K4me2 binding to N-terminal His9 tagged human BPTF isoform 2 PHD (2722 to 2781 residues) expressed in Escherichia coli BL21 Star (DE3) measured after 1 hr by Alphascreen assay
[3] = target: T1, Nucleosome-remodeling factor subunit BPTF; test: Binding affinity to N-terminal His9 tagged human BPTF isoform 2 PHD (2722 to 2781 residues) expressed in Escherichia coli BL21 Star (DE3) assessed as reduction in proton resonance intensity at 100 uM by 1H CPMG NMR assay relative to control; parameters: scale not given: the % may be the effect or the level left
[4] = target: Lysine-specific demethylase 5A (Homo sapiens) (UniProt P29375); test: Binding affinity to N-terminal His-tagged human KDM5A PHD3 (1486 to 1690 residues) expressed in Escherichia coli BL21 Star (DE3) assessed as reduction in proton resonance intensity at 100 uM by 1H CPMG NMR assay relative to control; parameters: scale not given: the % may be the effect or the level left
[5] = target: T1, Nucleosome-remodeling factor subunit BPTF; test: Binding affinity to N-terminal His9 tagged human BPTF isoform 2 PHD (2722 to 2781 residues) expressed in Escherichia coli BL21 Star (DE3) assessed as change in chemical shift perturbations at 1 mM by 1H,15N HSQC NMR spectroscopy
[6] = target: T1, Nucleosome-remodeling factor subunit BPTF; test: Binding affinity to N-terminal His9 tagged human BPTF isoform 2 PHD (2722 to 2781 residues) expressed in Escherichia coli BL21 Star (DE3) at 400 uM by SPR assay

Chain of Lysine-specific demethylase 5A (Homo sapiens) (P29375 whole entry, the tested form may be a part, canonical isoform): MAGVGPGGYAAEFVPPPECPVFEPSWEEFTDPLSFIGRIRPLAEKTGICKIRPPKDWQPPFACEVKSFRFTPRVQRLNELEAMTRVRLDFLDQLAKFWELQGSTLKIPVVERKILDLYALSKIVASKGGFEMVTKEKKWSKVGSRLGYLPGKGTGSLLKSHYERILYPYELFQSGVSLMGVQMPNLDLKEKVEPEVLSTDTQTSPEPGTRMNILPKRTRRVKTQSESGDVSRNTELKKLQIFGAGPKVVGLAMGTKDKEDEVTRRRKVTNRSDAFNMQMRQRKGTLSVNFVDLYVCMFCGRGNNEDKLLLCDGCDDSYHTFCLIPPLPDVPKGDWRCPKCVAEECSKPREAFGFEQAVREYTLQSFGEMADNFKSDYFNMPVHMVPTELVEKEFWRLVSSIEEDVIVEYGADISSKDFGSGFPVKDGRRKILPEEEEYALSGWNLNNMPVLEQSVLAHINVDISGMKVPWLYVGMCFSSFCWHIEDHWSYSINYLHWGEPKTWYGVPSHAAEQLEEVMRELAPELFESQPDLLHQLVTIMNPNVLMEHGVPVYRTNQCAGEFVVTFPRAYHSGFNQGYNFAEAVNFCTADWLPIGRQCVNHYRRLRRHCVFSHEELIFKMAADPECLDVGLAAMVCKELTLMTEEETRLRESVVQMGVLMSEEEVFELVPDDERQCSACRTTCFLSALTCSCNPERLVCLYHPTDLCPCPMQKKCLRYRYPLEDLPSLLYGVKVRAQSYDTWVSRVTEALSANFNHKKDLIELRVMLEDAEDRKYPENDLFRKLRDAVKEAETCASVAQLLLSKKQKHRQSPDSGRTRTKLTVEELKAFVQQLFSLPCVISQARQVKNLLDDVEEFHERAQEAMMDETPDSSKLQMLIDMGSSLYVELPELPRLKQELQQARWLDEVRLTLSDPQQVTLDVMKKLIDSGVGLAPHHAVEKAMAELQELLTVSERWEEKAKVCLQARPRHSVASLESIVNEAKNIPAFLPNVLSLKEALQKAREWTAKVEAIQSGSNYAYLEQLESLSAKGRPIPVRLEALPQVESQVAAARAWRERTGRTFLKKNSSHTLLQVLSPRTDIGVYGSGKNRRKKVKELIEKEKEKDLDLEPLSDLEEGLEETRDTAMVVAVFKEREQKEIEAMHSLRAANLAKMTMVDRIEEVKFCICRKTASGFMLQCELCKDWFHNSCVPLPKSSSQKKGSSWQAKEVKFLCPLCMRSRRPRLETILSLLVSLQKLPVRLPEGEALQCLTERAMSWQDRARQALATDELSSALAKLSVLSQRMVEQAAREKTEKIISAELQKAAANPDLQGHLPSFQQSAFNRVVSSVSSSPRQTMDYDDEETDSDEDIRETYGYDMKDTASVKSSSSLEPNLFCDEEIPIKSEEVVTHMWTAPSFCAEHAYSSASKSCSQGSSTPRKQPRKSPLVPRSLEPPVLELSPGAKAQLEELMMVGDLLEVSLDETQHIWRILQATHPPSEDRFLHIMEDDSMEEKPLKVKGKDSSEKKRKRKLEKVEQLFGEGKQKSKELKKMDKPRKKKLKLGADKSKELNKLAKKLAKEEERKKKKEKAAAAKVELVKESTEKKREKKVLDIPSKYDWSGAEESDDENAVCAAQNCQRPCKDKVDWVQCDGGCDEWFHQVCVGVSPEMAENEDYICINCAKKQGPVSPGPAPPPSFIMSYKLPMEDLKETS

| Compound | IC50 ([2]; read-out: IC50) [µM] | Activity [3] [%] | Activity [4] [%] | Activity [6] | also measured |
| --- | --- | --- | --- | --- | --- |
| Nc1ccnc2c1CCCC2 | – | – | – | – | inhibition [1]: 70% |
| NCC1CC(=O)N(c2ccc(F)c(F)c2)C1 (centres undefined) | 220 | – | – | – | – |
| Clc1ccc(N2CCNCC2)nn1 | 750 | – | – | – | – |
| Cc1ccc(NC(=O)NCC(C)N2CCCC2)cc1 (centres undefined) | – | 35 | < 20 | – | – |
| Fc1ccc(Nc2ccc(N3CCNCC3)nn2)cc1 | 25 | – | – | – | Activity [5]: inactive |
| NCC1CCN(c2cccc(F)c2)C1 (centres undefined) | 380 | 65 | < 20 | Active | Activity [5]: Active |
| Cc1ccc(Nc2ccc(Cl)nn2)cc1 | – | – | – | – | IC50 [2]: Not Determined(Insoluble) |
| Nc1c2c(nc3c1CCC3)CCCC2 [IPIDACRINE] | 590 | 50 | < 20 | Active | – |
| c1ccc(Nc2ccc(N3CCNCC3)nn2)nc1 | 20 | – | – | – | – |
| Cc1ccc(Nc2ccc(N3CCNCC3)nn2)nc1 | 30 | – | – | – | – |
| CC(=O)N1CCN(c2ccc(Nc3ccc(C)cc3)nn2)CC1 | 1200 | – | – | – | – |
| CC(=O)N1CCc2c(sc(N)c2C#N)C1 | 380 | – | – | – | – |
| Cc1cccc(CSC2=NCCN2)c1 | – | 50 | < 20 | Active | inhibition [1]: 83% |
| CCS(=O)(=O)N1CCN(c2ccc(Nc3ccc(C)cc3)nn2)CC1 | – | – | – | – | inhibition [1]: 78% |
| Cc1ccc(Nc2ccc(N3CCNCC3)nn2)cc1 | 300 | 50 | < 20 | Active | Activity [5]: inactive |
| COC1CN(c2nc3ccccc3s2)C1 | – | 30 | < 20 | Active | inhibition [1]: 70% |
| c1ccc(N2CC3CNCC3C2)cc1 (centres undefined) | 150 | – | – | – | – |
| N#Cc1c(N)sc2c1CCCC2 | 130 | 60 | > 20 | inactive | Activity [5]: Active |
| c1ccc2nc(N3CCOCC3)ccc2c1 | – | 35 | < 20 | inactive | – |
| Cn1nc2c(c1CNC(=O)c1ccc3c(c1)OCO3)CCC2 | – | 25 | < 20 | inactive | inhibition [1]: 71% |
| O=C(CC12CC3CC(CC(C3)C1)C2)N1CCCC1 | 500 | 25 | > 20 | inactive | – |
| Nc1c2c(nc3c1CCC3)CCC2 | – | – | – | – | inhibition [1]: 60% |
| N#Cc1c(N)sc2c1CCCCC2 | 63 | – | – | – | – |
